Experimental data reported in PMC6804243, “Small-Molecule Inhibition of UBE2T/FANCL-Mediated Ubiquitylation in the Fanconi Anemia Pathway” (ACS Chemical Biology, 2019).

Columns and labels:
[1] = system: U2OS cells; experiment: Cell cycle analysis based on EdU incorporation; settings: for S-phase indices: CU1 200 μM or CU2 500 μM
Experimental: (§1) Figure 3 Cell-based assays with CU1 and CU2: (a) Western blot showing that the formation of mUb-FANCD2(*), in response to HU treatment (2.5 mM, 8 h), is impaired in U2OS cells in the presence of CU1 (200 μM) or CU2 (500 μM). Ratio = mUb-FANCD2/FANCD2 (normalized to DMSO control). mUb-FANCD2 was resolved on a separate gel. PARP1 was used as a loading control for each gel, as well as to assess apoptosis. (b) Quantification of the reduction in mUb-FANCD2, in response to HU treatment (2.5 mM, 8 h) in the presence of CU1 (200 μM) or CU2 (500 μM). Mean calculated from three independent experiments. (c) Western blot showing that formation of mUb-FANCD2 (denoted by an asterisk symbol, *) in response to cisplatin treatment (10 μM) for 6, 12, and 24 h is impaired in U2OS cells in the presence of CU2 (500 μM). Ratio = mUb-FANCD2/FANCD2 (normalized to DMSO control). (d) Cell cycle analyses based upon EdU incorporation in cells treated with HU (2.5 mM, 8 h) in the presence or absence of CU1 (200 μM) or CU2 (500 μM). HU treatment was used for gating purposes. […] TEXT PRINTED IN THE PICTURE: (d) DMSO: S-phase 42.7; G1 29.2; G2-M 27.8 | (d) HU: S-phase 0.24; G1 72.4; G2-M 22.9 | (d) CU1: S-phase 43.4; G1 26.8; G2-M 29.1 | (d) CU2: S-phase 39.7; G1 31.9; G2-M 28.2 DOUBTS OF THE COPYIST ABOUT THIS PICTURE: Panel d print is small, so these digits are best readings: DMSO G2-M 27.8 (8 or 6); CU1 G1 26.8 (6 or 8); CU2 S-phase 39.7 (9 or 8); CU2 G2-M 28.2 (8 or 6) / Panels a and c: the lane ratios printed under the western blots (a: 1.0, 0.64, 0.40; c: 1.0/0.65, 1.0/0.63, 1.0/0.53) were left out because they belong to blots and the picture prints no measure for them […]
As DNA damage induced by HU is cell-cycle-dependent, it was necessary to establish whether CU1 and CU2 might simply prevent cells from entering the S-phase, which would also manifest itself as a reduction in mUb-FANCD2. This was determined by analysis of several biomarkers linked to DNA damage in cycling cells. […]

[2] = system: mUb-H2A and total protein ubiquitylation; experiment: Immunoblot of widespread cellular ubiquitylation (mUb-H2A, FK2 antibody); format: cell-based; settings: U2OS; CU1 200 μM or CU2 500 μM; with or without HU 2.5 mM, 8 h
Experimental: as §1, with “experiments.” for “experiments. (c) Western blot showing that formation of mUb-FANCD2 (denoted by an asterisk symbol, *) in response to cisplatin treatment (10 μM) for 6, 12, and 24 h is impaired in U2OS cells in the presence of CU2 (500 μM). Ratio = mUb-FANCD2/FANCD2 (normalized to DMSO control). (d) Cell cycle analyses based upon EdU incorporation in cells treated with HU (2.5 mM, 8 h) in the presence or absence of CU1 (200 μM) or CU2 (500 μM). HU treatment was used for gating purposes.”
To investigate if the compounds were affecting more widespread ubiquitylation events in the cell, the monoubiquitylation status of histone H2A was assessed (mUb-H2A; Figure 3a). […]

For NCCN1C(=O)CC[C@H]2CN(Cc3cccc(-c4ccco4)c3)CC[C@H]21 [CU1], the EdU incorporation intensity ([1]; CU1 200 μM) was “slightly lower”, the S-phase indices [1] was “no reduction in S-phase indices” and the “total protein ubiquitylation (FK2 antibody)” value [2] was “do not affect total protein ubiquitylation”.
CCN1CCN(c2cc(C)nc3nc(CN4CCCCC4C)nn23)CC1 (centres unmarked) [CU2] was tested, and the S-phase indices [1] was “no reduction in S-phase indices” and the “total protein ubiquitylation (FK2 antibody)” value [2] was “do not affect total protein ubiquitylation”.
